{"source": "patent US7399460B2", "about": "“Metal complexes derivatized with folate for use in diagnostic and therapeutic applications” (Bracco International B.V., priority 1998, dated 2008)", "key": {"[1]": {"biological_target": "T1, folate binding protein on KB cells (Homo sapiens, UniProt P15328)", "T1 construct": "host or cells: KB cells", "T1 sequence (P15328 25-234)": "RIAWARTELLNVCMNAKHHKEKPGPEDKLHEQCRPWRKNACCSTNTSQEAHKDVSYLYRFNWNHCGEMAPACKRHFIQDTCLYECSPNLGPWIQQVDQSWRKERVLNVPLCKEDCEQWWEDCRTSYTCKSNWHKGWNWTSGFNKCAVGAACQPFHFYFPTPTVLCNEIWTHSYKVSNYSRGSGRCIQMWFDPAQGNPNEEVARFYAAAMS", "experiment": "Binding of ^153Gd-DO3A-APA-folate (α or γ isomer) or ^3H folate to KB cells at 37° C. in competition with cold native folate", "settings": "10 pmol labelled compound, 0-900 pmol cold native folate, 30 min, FIG. 1", "procedure": "(§1) Cell culture: KB cells (a human nasopharyngeal epidermal carcinoma cell line) and JAR cells (a human choriocarcinoma cell line) were obtained from ATCC (American Type Culture Collection). Both cell lines are reported to overexpress transcripts encoding folate binding protein. […] The media for each cell line was supplemented with 10% defined fetal calf serum (HyClone, Inc.) Monolayers were cultured at 37° C. in a humidified atmosphere containing 5% CO2.\n(§2) Forty-eight hours prior to each experiment, 5×10^5 cells were seeded into 35 mm culture dishes and allowed to grow for 2 days in folate-depleted media. The cells were then washed with Tris-buffered saline (TBS=150 mM NaCl, 50 mM Tris, pH 7.5) and 1 mL of fresh media containing 10 pmol ^153Gd-DO3A-APA-folate (α or γ isomer) and 0-900 pmol of cold native folate per sample was added. Control experiments were performed using 10 pmol of ^3H folate (Amersham International) and 0-900 pmol of cold native folate. The cells were incubated for 30 min at 37° C. They were then washed three times with ice cold TBS and suspended in one ml of water. Cell associated radioactivity was determined by gamma (^153Gd-folate) or scintillation counting (^3H-folate) of a 500 μl aliquot of this suspension; 100 μl was used in the BCA protein assay (Pierce catalog # 23225), which was used to determine and normalize for cellular protein content."}, "[2]": {"biological_target": "T2, folate binding protein on the KB cells (Homo sapiens, UniProt P15328)", "T2 construct": "host or cells: KB cells", "T2 sequence (P15328 25-234)": "as above", "experiment": "Binding of ^3H-folate and alpha or gamma isomer of ^153Gd-DO3A-APA-folate to KB cells at 4° C. with and without excess folate", "settings": "30 min", "procedure": "In a second experiment, the ability of the alpha and gamma isomers of ^153Gd-DO3A-APA-folate to bind to KB cells at 4° C. was studied. KB cells (˜5×10^5 cells/well) were seeded into 35-mm wells and incubated for 48 hours as described above. The cells were then cooled to 4° C. for 30 min and incubated with the following mixtures for 30 min at 4° C.: • 1. 10 pmol of ^3H-folate • 2. 10 pmol of ^3H-folate and 250 pmol of native folate • 3. 10 pmol of ^153Gd/Gd(DO3A-APA-α-folate) • 4. 10 pmol of ^153Gd/Gd(DO3A-APA-α-folate) and 250 pmol of native folate • 5. 10 pmol of ^153Gd/Gd(DO3A-APA-γ-folate) • 6. 10 pmol of ^153Gd/Gd(DO3A-APA-γ-folate) and 250 pmol of native folate\n(§3) Following the incubation period, the cells were washed 3 times with ice-old Tris-buffered saline. The cells were then stripped from the plates using 1.0 mL of water. Aliquots of the water/cell mixture were assayed for the respective radioisotopes and for cellular protein (to determine the number of KB cells present in each well). The radioassay data were used to calculate the % of radiolabeled compound bound to the cells in the absence and presence of unlabeled native folate. Data in FIG. 2 are presented as the percentage bound, relative to the % bound in the control wells containing 10 pmol of ^3H-folate."}, "JAR cells [3]": {"biological_target": "T3, JAR cells (Homo sapiens, UniProt P15328)", "T3 construct": "host or cells: JAR cells", "T3 sequence (P15328 25-234)": "as above", "experiment": "Binding of ^153Gd-folates or ^3H folate to JAR cells at 37° C.", "procedure": "as §1, §2"}, "cell surface FBP": {"biological_target": "cell surface FBP (Homo sapiens, UniProt P15328)", "sequence (P15328 25-234)": "as above", "settings": "in the presence of an equimolar amount of conjugate; cited from earlier work"}, "[4]": {"biological_target": "T2, folate binding protein on the KB cells", "experiment": "Binding of alpha and gamma isomers of ^99mTc-oxa-folate to KB cells at 4° C.", "settings": "30 min; for competition with native folate for folate binding protein on KB cells: plus 250-260 pmol cold native folate, 4° C. (FIG. 4, white bars); for binding to KB cells relative to that observed with 10 pmol of ^3H-folate: trace amounts (~0.5 μCi), 4° C., no cold folate (FIG. 4, dark bars)", "procedure": "The ability of the alpha and gamma isomers of ^99mTc-oxa-folate to bind to KB cells was studied at 4° C. KB cells (˜5×10^5 cells/well) were seeded into 35-mm wells and incubated for 48 hours as described in example 17 above. The alpha and gamma isomers of ^99mTc-oxa-folate, were prepared and purified as described in examples 14 and 16. The cells were then cooled to 4° C. for 30 min and incubated with the following mixtures for 30 min at 4° C.: • 1. 10 pmol of ^3H-folate • 2. 10 pmol of ^3H-folate and 250 pmol of native folate • 3. […] Trace amounts (˜0.5 μCi) of ^99mTc-Oxa-γ-folate • 6. Trace amounts (˜0.5 μCi) of ^99mTc-Oxa-γ-folate and 260 pmol of native folate\nas §3, with “ice-cold” for “ice-old”, “4” for “2”"}, "KB cells": {"test_system": "KB cells", "experiment": "In vitro exchange study with cold native folate in the medium, KB cells", "assay_type": "cell-based, human", "settings": "24 hours, 37° C., medium with cold native folate (250 nM), FIG. 4A", "procedure": "(§4) Exchange studies were performed to examine the effect of native folate on the radioactivity levels in KB or JAR cells that had been pre-loaded with a saturating level of radiolabeled Gd-folates or native folate in vitro. ^3H-folate, ^153Gd-DO3A-APA-(γ)-folate or ^153Gd-DO3A-APA-(α)-folate (250 pmol) was incubated with KB or JAR cells as described in Example 18. At the end of the 30-min incubation period, these ^153Gd-folate or ^3H-folate-loaded cells were washed five times with ice-cold media containing 250 nM cold, native folate and were then incubated at 37° C. for 24 hours with media that contained 250 pmol of cold folate. At predetermined intervals during this time, the incubation medium was removed and replaced with fresh medium at 37° C. The radioactivity present in each aliquot of the incubation medium was used to determine the rate at which radioactivity from the ^3H-folate, ^153Gd-DO3A-APA-(γ)-folate or ^153Gd-DO3A-APA-(α)-folate washed out of the cells. At the end of the study, the cells were suspended in one ml of water and assayed for radioactivity and protein content."}, "JAR cells [5]": {"biological_target": "T3, JAR cells", "experiment": "In vitro exchange study with cold native folate in the medium, JAR cells", "assay_type": "cell-based", "procedure": "as §4"}, "MA104 cells": {"test_system": "MA104 cells", "settings": "cited from earlier work"}, "JAR tumors": {"test_system": "JAR tumors", "experiment": "Biodistribution at MRI dose level in nude mice with subcutaneous JAR tumors", "settings": "60 min, 79.2 μmol/kg dose", "experimental": "Biodistribution studies were performed using female nu/nu mice implanted with subcutaneous JAR tumors using the general procedures described in the example above. Animals were sacrificed 60 min post IV injection of an “MRI” dose level (0.1 mmol/kg) of ^153Gd/Gd-DO3A-APA-(α)-folate, ^153Gd/Gd-DO3A-APA-(γ)-folate or Bis(^153Gd/Gd-DO3A-APA)folate and selected organs were removed, weighed, and assayed for radioactivity, in order to determine the % injected dose/g-tissue (% ID/g) in the tumors."}}}
{"compound": "^153Gd-DO3A-APA-(γ)-folate", "values": [{"measurement": "amount bound to the KB cells", "setting": "[1]", "result": "No significant differences"}, {"measurement": "competition with native folate for folate binding protein on KB cells", "setting": "[2]; 10 pmol plus 250 pmol cold native folate, 4° C. (FIG. 2, white bars)", "result": "do compete for folate binding protein on the KB cells"}, {"measurement": "binding to KB cells compared with 10 pmol of ^3H-folate", "setting": "[2]; 10 pmol, 4° C., no cold folate (FIG. 2, dark bars)", "result": "to the same extent"}, {"measurement": "ability to compete with cold native folate for binding to the JAR cells", "setting": "JAR cells [3]; 10 pmol, 0-900 pmol cold folate, 30 min, 37° C.", "result": "equally effective"}, {"measurement": "binding to JAR cells compared with the radiolabeled control (^3H-folate)", "setting": "JAR cells [3]; comparable test conditions, FIG. 1A", "result": "about half as effective"}]}
{"compound": "CC(=O)N(O)CCCCCNC(=O)CCC(=O)N(O)CCCCCNC(=O)CCC(=O)N(O)CCCCCNC(=O)CCC(NC(=O)c1ccc(NCc2cnc3nc(N)[nH]c(=O)c3n2)cc1)C(=O)O", "note": "(stereo not drawn) [DF-folate (γ) conjugate]", "values": [{"measurement": "decrease in bound ^3H folic acid", "setting": "cell surface FBP", "result": 50, "unit": "%"}]}
{"compound": "99m-Technetium complex of 12-(N-Pteroyl-γ-L-glutamyl)-3,3,9,9-tetramethyl-5-oxa-4,8-diaza-2,10-dodecanedione dioxime [^99mTc-Oxa-γ-folate]", "values": [{"measurement": "competition with native folate for folate binding protein on KB cells", "setting": "[4]", "result": "do compete for folate binding protein on the KB cells"}, {"measurement": "binding to KB cells relative to that observed with 10 pmol of ^3H-folate", "setting": "[4]", "result": "to the same extent"}]}
{"compound": "99m-Technetium complex of 12-(N-Pteroyl-α-L-glutamyl)-3,3,9,9-tetramethyl-5-oxa-4,8-diaza-2,10-dodecanedione dioxime [^99mTc-Oxa-α-folate]", "values": [{"measurement": "competition with native folate for folate binding protein on KB cells", "setting": "[4]", "result": "do compete for folate binding protein on the KB cells"}, {"measurement": "binding to KB cells relative to that observed with 10 pmol of ^3H-folate", "setting": "[4]", "result": 140, "unit": "%"}]}
{"compound": "Gd-DO3A-APA-(γ)-folate", "values": [{"measurement": "radioactivity lost from loaded KB cells to the incubation medium", "setting": "KB cells", "result": 20, "unit": "%"}, {"measurement": "radioactivity from loaded JAR cells found in the medium", "setting": "JAR cells [5]; after 6 hours, 37° C., medium with cold native folate, FIG. 4B", "result": 30, "unit": "%"}, {"measurement": "amount of compound washed from the JAR cells", "setting": "JAR cells [5]; at 24 hours", "result": "similar"}]}
{"compound": "Nc1nc2ncc(CNc3ccc(C(=O)N[C@@H](CCC(=O)O)C(=O)O)cc3)nc2c(=O)[nH]1", "note": "[folic acid]", "values": [{"measurement": "binding by MA104 cells", "setting": "MA104 cells", "result": "1-2 pmol folic acid/10^6 cells"}]}
{"compound": "CC(C)(C)OC(=O)NCCCC(CCCNC(=O)OC(C)(C)C)(CCCNC(=O)OC(C)(C)C)NC(=O)CCC(=O)NC(CCC(=O)OCc1ccccc1)(CCC(=O)OCc1ccccc1)CCC(=O)OCc1ccccc1", "note": "[Example 11, N-[1,5-Bis(benzyloxycarbonyl)-3-[2-(benzyloxycarbony)ethyl)]-3-pentyl]-N′-[1,7-bis-(t-butoxycarbony)amino-[4-(3-(t-butyloxycarbonyl)propyl]-4-heptyl]butanedioic diamide]", "values": [{"measurement": "melting point", "result": "95 to 96", "unit": "°C"}]}
{"compound": "CC(=O)N(O)CCCCCNC(=O)CCC(=O)N(O)CCCCCNC(=O)CCC(=O)N(O)CCCCCNC(=O)C(CCC(=O)O)NC(=O)c1ccc(NCc2cnc3nc(N)[nH]c(=O)c3n2)cc1", "note": "(single isomer, unassigned) [DF-folate (α) isomer]", "values": [{"measurement": "decrease in bound ^3H folic acid", "setting": "cell surface FBP", "result": "no ability to compete"}]}
{"compound": "Bis(^153Gd-DO3A-APA)-folate", "values": [{"measurement": "Tumor % ID/g", "setting": "JAR tumors", "result": "1.48 (0.12) % ID/g"}, {"measurement": "[Gd] in tumor tissue", "setting": "JAR tumors; calculated from % ID/g", "result": "55 (4) μM"}]}
